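Method: 48-hour compound exposure of cells in 96-well plates, five concentrations, linear interpolation of endpoints. TGI denotes the concentration required for complete inhibition of growth.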 Bounds are passed on as bounds.

The values that follow come from PubChem BioAssay (NCI).

Among the test systems are ACHN renal; OVCAR-5 ovarian; T-47D breast; SNB-19 CNS; SF-268 CNS; OVCAR-3 ovarian; BT-549 breast; SW-620 colon; NCI-H23 lung; M14 melanoma; NCI-H226 lung; PC-3 prostate; MDA-N; RXF 393 renal; HS 578T breast; CAKI-1 renal; SK-MEL-5 melanoma; KM12 colon; SR leukemia.
Common to all, as to assay: growth of human tumour cells (NCI), 48 h

On to `CN(C)CCNc1nc2ccccc2c2c1CCCC2`, for which the TGI in the assay with ACHN renal is 65.3 µM; with OVCAR-5 ovarian it was over 100 µM; in the assay on T-47D breast, 40.4 µM; with SNB-19 CNS, over 100 µM; with SF-268 CNS, over 100 µM; in the assay with OVCAR-3 ovarian, over 100 µM. Besides, the TGI was over 100 µM with BT-549 breast; 86 µM in the assay on SW-620 colon; over 100 µM in the assay on NCI-H23 lung; 32.5 µM in the assay on M14 melanoma; 55.7 µM with NCI-H226 lung; over 100 µM in the assay with PC-3 prostate. Moreover, the TGI was 33.9 µM in the assay with MDA-N; 22.9 µM in the assay with RXF 393 renal; over 100 µM in the assay on HS 578T breast; 44.7 µM with CAKI-1 renal; 32.4 µM with SK-MEL-5 melanoma; 41.4 µM in the assay on KM12 colon.

On to `C=CCc1[nH]c2c(OCc3ccccc3)cc(N(CC=C)C(C)=O)cc2c1C`, for which the TGI with ACHN renal turned out to be 25.3 µM; with OVCAR-5 ovarian it was 27.2 µM; in the assay on T-47D breast it was 26.4 µM; with SNB-19 CNS, 25.3 µM; with SF-268 CNS it was 24.6 µM; with OVCAR-3 ovarian, 29.6 µM. For the same compound, the TGI was 29.3 µM in the assay on BT-549 breast; 32.2 µM in the assay on SW-620 colon; 26.8 µM with NCI-H23 lung; 21.8 µM in the assay on M14 melanoma; 37.2 µM with NCI-H226 lung; 20.2 µM with PC-3 prostate. Also, the TGI in the assay on MDA-N worked out at 27.9 µM; in the assay with RXF 393 renal it was 26.7 µM; in the assay with HS 578T breast, 30.8 µM; in the assay with CAKI-1 renal it was 29.9 µM; with SK-MEL-5 melanoma, 24 µM; in the assay on KM12 colon, 30.1 µM.

Take `Cc1ccc(S(=O)(=O)CN2C(=O)C(c3ccccc3)(c3ccccc3)C23OC(c2ccc(Cl)cc2)=CC3=O)cc1` (centres undefined): the TGI in the assay on ACHN renal, in the assay with OVCAR-5 ovarian, in the assay with T-47D breast, in the assay with SNB-19 CNS, in the assay on SF-268 CNS and in the assay on OVCAR-3 ovarian was over 10 µM each time. Also, the TGI with BT-549 breast, with SW-620 colon, in the assay on NCI-H23 lung, in the assay with M14 melanoma, with NCI-H226 lung and in the assay on PC-3 prostate was over 10 µM in each case. The TGI in the assay with MDA-N, in the assay on RXF 393 renal, in the assay on HS 578T breast, with CAKI-1 renal, with SK-MEL-5 melanoma and with KM12 colon was over 10 µM in each case.

For `c1cnn(C23C4C5C6C4C2C6C53)c1` (centres undefined), the TGI with ACHN renal, with OVCAR-5 ovarian, in the assay with T-47D breast, with SNB-19 CNS, in the assay on SF-268 CNS and in the assay on BT-549 breast was over 100 µM in each case. Moreover, the TGI in the assay with SW-620 colon, in the assay with NCI-H23 lung, in the assay on SR leukemia, in the assay on NCI-H226 lung, with PC-3 prostate and with MDA-N was over 100 µM throughout. The TGI in the assay on HS 578T breast, with SK-MEL-5 melanoma and in the assay with KM12 colon was over 100 µM throughout.

For the compound `N#CC(N)c1ccc(OCCCCCCCCCCOc2ccc(C(N)C#N)cc2)cc1` (centres undefined), the TGI in the assay with ACHN renal, in the assay with OVCAR-5 ovarian, with T-47D breast, with SNB-19 CNS, in the assay on SF-268 CNS and with OVCAR-3 ovarian was over 100 µM in each case. The TGI in the assay on BT-549 breast, in the assay on SW-620 colon, in the assay with NCI-H23 lung, in the assay with M14 melanoma, in the assay with NCI-H226 lung and with PC-3 prostate was over 100 µM each time. Moreover, the TGI in the assay with MDA-N, in the assay on RXF 393 renal, in the assay on HS 578T breast, in the assay on CAKI-1 renal, in the assay with SK-MEL-5 melanoma and in the assay with KM12 colon was over 100 µM each time.

In the case of `Cc1cc(O)c2c(c1O)C(=O)c1cccc(O)c1C2=O`, the TGI with ACHN renal, with OVCAR-5 ovarian, with T-47D breast, in the assay on SNB-19 CNS, in the assay with SF-268 CNS and in the assay on OVCAR-3 ovarian was over 100 µM throughout. In addition, the TGI in the assay on BT-549 breast, with SW-620 colon, with NCI-H23 lung, in the assay with M14 melanoma, in the assay with NCI-H226 lung and in the assay with PC-3 prostate was over 100 µM throughout. The TGI with MDA-N, in the assay with RXF 393 renal, with HS 578T breast, in the assay on CAKI-1 renal, in the assay with SK-MEL-5 melanoma and with KM12 colon was over 100 µM each time.

In the case of `COc1ccc(NC(=S)N/N=C\c2ccc(NC(C)=O)cc2)cc1`, the TGI in the assay on ACHN renal, in the assay with OVCAR-5 ovarian, with T-47D breast, with SNB-19 CNS, in the assay on OVCAR-3 ovarian and in the assay with BT-549 breast was over 100 µM throughout. Besides, the TGI with SW-620 colon, in the assay on NCI-H23 lung, in the assay on SR leukemia, in the assay with M14 melanoma, with PC-3 prostate and in the assay on MDA-N was over 100 µM in each case. Further, the TGI with HS 578T breast, with CAKI-1 renal, with SK-MEL-5 melanoma and in the assay on KM12 colon was over 100 µM each time.

As for `O=C1C(C(O)(C(F)(F)Cl)C(F)(F)Cl)CCCC1C(O)(C(F)(F)Cl)C(F)(F)Cl` (centres undefined), the TGI in the assay on ACHN renal, in the assay with OVCAR-5 ovarian, in the assay on T-47D breast, in the assay on SNB-19 CNS, in the assay with SF-268 CNS and in the assay on OVCAR-3 ovarian was over 10 µM each time. For the same compound, the TGI in the assay with BT-549 breast, in the assay on SW-620 colon, in the assay on NCI-H23 lung, in the assay with M14 melanoma, in the assay with NCI-H226 lung and in the assay on PC-3 prostate was over 10 µM in each case. Further, the TGI in the assay on MDA-N, in the assay with RXF 393 renal, with HS 578T breast, in the assay on CAKI-1 renal, in the assay with SK-MEL-5 melanoma and in the assay with KM12 colon was over 10 µM in each case.

As for `N#C[C@H](C(=O)c1ccccc1F)c1nc2ccccc2s1`, the TGI with ACHN renal was over 100 µM; in the assay with OVCAR-5 ovarian it was over 100 µM; with T-47D breast, over 100 µM; in the assay on SNB-19 CNS, over 100 µM; with SF-268 CNS, over 100 µM; with OVCAR-3 ovarian, 63.7 µM. The TGI in the assay with BT-549 breast, in the assay on SW-620 colon, with NCI-H23 lung, in the assay with M14 melanoma, with NCI-H226 lung and in the assay with PC-3 prostate was over 100 µM in each case. In addition, the TGI in the assay with MDA-N was over 100 µM; with RXF 393 renal, over 100 µM; in the assay on HS 578T breast it was over 100 µM; in the assay on CAKI-1 renal, over 100 µM; in the assay on SK-MEL-5 melanoma it was over 100 µM; in the assay on KM12 colon, 38.6 µM.

Consider `C=CCNC(=S)N=Nc1c(O)n(CN2CCOCC2)c2ccc([N+](=O)[O-])cc12`, for which the TGI is over 100 µM in the assay on ACHN renal; over 100 µM with OVCAR-5 ovarian; 95.1 µM in the assay with T-47D breast; over 100 µM in the assay on SNB-19 CNS; over 100 µM in the assay with SF-268 CNS; over 100 µM in the assay on OVCAR-3 ovarian. The TGI in the assay on BT-549 breast, in the assay on SW-620 colon, in the assay with NCI-H23 lung, in the assay with M14 melanoma, in the assay with NCI-H226 lung and in the assay with PC-3 prostate was over 100 µM throughout. Also, the TGI in the assay on MDA-N was over 100 µM; in the assay on RXF 393 renal, over 100 µM; in the assay on HS 578T breast, over 100 µM; in the assay with CAKI-1 renal, over 100 µM; in the assay with SK-MEL-5 melanoma, 84.6 µM; with KM12 colon it was over 100 µM.

Take `O=C(O)CSC(CC1(c2ccc(Cl)cc2)NC(=O)CS1)c1ccc(Cl)cc1` (centres undefined): the TGI in the assay with ACHN renal, with OVCAR-5 ovarian, in the assay with T-47D breast, with SNB-19 CNS, with SF-268 CNS and in the assay on OVCAR-3 ovarian was over 100 µM in each case. In addition, the TGI with BT-549 breast, in the assay on SW-620 colon, in the assay on NCI-H23 lung, in the assay on SR leukemia, in the assay on M14 melanoma and in the assay on PC-3 prostate was over 100 µM each time. Moreover, the TGI in the assay on MDA-N, in the assay on HS 578T breast, in the assay with CAKI-1 renal, with SK-MEL-5 melanoma and in the assay on KM12 colon was over 100 µM each time.

Consider `O=P1(Oc2ccccc2)N=P(c2ccccc2)(c2ccccc2)C=C(c2ccc(Cl)cc2)N1` (centres undefined), for which the TGI with ACHN renal was 25.6 µM; in the assay on OVCAR-5 ovarian, 28.2 µM; in the assay with T-47D breast, 24.7 µM; in the assay on SNB-19 CNS, 29.7 µM; in the assay on SF-268 CNS it was 26.2 µM; in the assay with OVCAR-3 ovarian, 13.6 µM. Besides, the TGI in the assay on BT-549 breast worked out at 29.6 µM; with SW-620 colon it was 29.5 µM; in the assay on NCI-H23 lung, 32.2 µM; in the assay on SR leukemia, 21.5 µM; with M14 melanoma, 21.1 µM; with PC-3 prostate, 20.7 µM. Also, the TGI in the assay on MDA-N is 22.8 µM; with HS 578T breast it was 43.5 µM; in the assay on CAKI-1 renal it was 23 µM; in the assay with SK-MEL-5 melanoma it was 10.2 µM; with KM12 colon, 25.1 µM.
